# Data published in article PMC7397249, “Properly Substituted Cyclic Bis-(2-bromobenzylidene) Compounds Behaved as Dual p300/CARM1 Inhibitors and Induced Apoptosis in Cancer Cells” (Molecules, 2020).
# Assays:
# NB4 cells = assay: Cell cycle and apoptosis (sub-G1) analysis by FACS in NB4 cells; assay type: cell-based, human; conditions: 5 μM, 30 h
# Method: (§1) Compounds 4a–n were tested at 5 μM for 30 h in NB4 […] and U937 AML cells among hematological cancers, and in MCF-7 breast cancer and SH-SY5Y neuroblastoma cells among solid cancers, to determine their effects in cell cycle and apoptosis induction.
# (§2) In the same cell lines, the induction of apoptosis has been evaluated through the percentage of the sub-G1 peaks.
# (§3) For colorimetric exclusion, the cells (2 × 10^5 cells/mL) were plated in multiwells in triplicate. After stimulations at different times and concentrations, cells were diluted in the ratio 1:1 in Trypan Blue (Sigma) and counted with an optical microscope. For cell cycle analyses, cells were plated (2 × 10^5 cells/mL) and were harvested, centrifuged at 1200 rpm for 5 min and resuspended in 500 μL of a hypotonic solution containing 1× PBS, Sodium Citrate 0.1%, 0.1% NP-40, RNAase A and […] Propidium Iodide (PI). After 30 min at room temperature (RT) in the dark, samples were acquired by FACS-Calibur (BD Bioscences, San Jose, CA, USA) using CellQuest software (BD Biosciences). The percentage in different phases of the cell cycle was determined by ModFit LT V3 software (Verity). All experiments were performed in triplicate. Cell death was measured as percentage of cells in sub-G1 phase as in [30].
# p300 = assay: Western blot of acetylation marks (p300 inhibition) in NB4 cells; assay type: cell-based, human; conditions: 5 μM, 30 h
# Method: (§4) Western blot analyses were carried out on NB4 and MCF-7 cells treated with a subset of compounds 4 (5 μM, 30 h), to confirm that the observed effects are due to modulation of p300, CARM1, and eventually EZH2 activities. Suberoylanilide hydroxamic acid (SAHA), a FDA-approved HDAC inhibitor [28], and GSK-126 [29], a well-known EZH2 inhibitor, were added as internal controls. In NB4 cells, the levels of acetyl-H3 (acH3) and acetyl-H4 (acH4) as well as those of acetyl-H3K9/14 (AcH3K9/14, see Supplementary material) and of the non-histone substrate acetyl-α-tubulin (Ac-Tubulin) were detected as an index of p300 inhibition (Figure 4). In the same cell line, the levels of H3K27me3, histone mark of the EZH2 catalytic activity (Figure 4), as well as the level of the EZH2 expression (see Supplementary material) have been determined. Last, the amount of H3R17me2, the functional read-out of CARM1 inhibition, was determined (Figure 4).
# (§5) The procedures were performed as described in [30, 31]. Primary antibodies used were: Ac-H3 (Millipore, Milan, Italy); Ac-H4 (Millipore, Milan, Italy); Ac-H3K9-14 (Diagenode, Ougrée, Belgium); Ac-α-tubulin (Sigma-Aldrich), H3K27me3 (Diagenode); H3R17me2 (Diagenode); EZH2 (Abcam, Cambridge, UK). […]
# EZH2 = assay: Western blot of H3K27me3 (EZH2 catalytic activity) in NB4 cells; assay type: cell-based, human; conditions: 5 μM, 30 h
# Method: as §4, §5
# SH-SY5Y cells = assay: Cell cycle and apoptosis (sub-G1) analysis by FACS in SH-SY5Y cells; assay type: cell-based, human; conditions: 5 μM, 30 h
# Method: as §1, §2, §3
# [1] = Cell viability in non-cancer mesenchymal progenitor cells (differential toxicity); assay type: cell-based; conditions: human, MePR2B cells, control 100%, read-out: percentage of cell viability
# Method: After treatment at 5 μM for 30 h, 4l and 4m reduced the percentage of cell viability to 61.2 ± 0.8 and 85.5 ± 3.7, respectively, in comparison with the control (100%).
# as §3
# CARM1 = assay: Western blot of H3R17me2 (CARM1) in MCF-7 cells; assay type: cell-based, human; conditions: 5 μM, 30 h
# Method: In MCF-7 cells, the levels of acetyl-H3, acetyl-H4, H3K27me3, and H3R17me2 were detected by western blot analyses as functional tests for p300 (acH3 and acH4), EZH2 (H3K27me3) and CARM1 (H3R17me2) inhibition in cells, respectively (Figure 5).
# The procedures were performed as described in [30, 31]. Primary antibodies used were: Ac-H3 (Millipore, Milan, Italy); Ac-H4 (Millipore, Milan, Italy); Ac-H3K9-14 (Diagenode, Ougrée, Belgium); Ac-α-tubulin (Sigma-Aldrich), H3K27me3 (Diagenode); H3R17me2 (Diagenode); EZH2 (Abcam, Cambridge, UK). H3 (Sigma-Aldrich), H4 (Abcam), GAPDH (Sigma) and ERKs (Santa Cruz, Biotechnology, TX, USA) were used to normalize the total protein extracts (see also Supplementary Material).
structure (smiles),measurement,setting,value
"O=C1/C(=C/c2ccccc2Br)CN(Cc2ccccc2)C/C1=C\c1ccccc1Br [Compound 4e, 1-benzyl-3,5-bis((E)-2-bromobenzylidene)piperidin-4-one]","induction of apoptosis, % sub-G1 peaks",NB4 cells,30 to 40%
"O=C1/C(=C/c2ccccc2Br)CN(CCc2ccccc2)C/C1=C\c1ccccc1Br [Compound 4f, 3,5-Bis((E)-2-bromobenzylidene)-1-phenethylpiperidin-4-one]",levels of acetyl-H3,p300,less effective
"O=C1/C(=C/c2ccccc2Br)CN(CCCc2ccccc2)C/C1=C\c1ccccc1Br [Compound 4g, 3,5-Bis((E)-2-bromobenzylidene)-1-(3-phenylpropyl)piperidin-4-one]",levels of acetyl-H3,p300,less effective
"O=C1/C(=C/c2ccccc2Br)CN(CC(=O)c2ccccc2)C/C1=C\c1ccccc1Br [Compound 4h, 3,5-Bis((E)-2-bromobenzylidene)-1-(2-oxo-2-phenylethyl)piperidin-4-one]",levels of H3K27me3,EZH2,reduction of the H3K27me3 levels
same,effect on cell cycle phases,SH-SY5Y cells,arrest in the G1/S phase
same,"induction of apoptosis, % sub-G1 peaks",SH-SY5Y cells,less than 20%
same,"induction of apoptosis, % sub-G1 peaks",NB4 cells,30 to 40%
"O=C1/C(=C/c2ccccc2Br)CN(CCCC(=O)c2ccccc2)C/C1=C\c1ccccc1Br [Compound 4j, 3,5-Bis((E)-2-bromobenzylidene)-1-(4-oxo-4-phenylbutyl)piperidin-4-one]",effect on cell cycle phases,SH-SY5Y cells,arrest in the G1/S phase
"O=C1/C(=C/c2ccccc2Br)CN(C(=O)c2ccccc2)C/C1=C\c1ccccc1Br [Compound 4k, 1-Benzoyl-3,5-bis((E)-2-bromobenzylidene)piperidin-4-one]","induction of apoptosis, % sub-G1 peaks",NB4 cells,30 to 40%
"O=C1/C(=C/c2ccccc2Br)CN(C(=O)Cc2ccccc2)C/C1=C\c1ccccc1Br [Compound 4l, 3,5-Bis((E)-2-bromobenzylidene)-1-(2-phenylacetyl)piperidin-4-one]",effect on cell cycle phases,SH-SY5Y cells,arrest in the G1/S phase
same,"induction of apoptosis, % sub-G1 peaks",NB4 cells,67%
same,"viability at 30 h, 5 µM",[1],61.2 ± 0.8%
"O=C1/C(=C/c2ccccc2Br)CN(C(=O)CCc2ccccc2)C/C1=C\c1ccccc1Br [Compound 4m, 3,5-Bis((E)-2-bromobenzylidene)-1-(3-phenylpropanoyl)piperidin-4-one]",levels of H3K27me3,EZH2,reduction of the H3K27me3 levels
same,effect on cell cycle phases,SH-SY5Y cells,arrest in the G1/S phase
same,"induction of apoptosis, % sub-G1 peaks",SH-SY5Y cells,17%
same,"induction of apoptosis, % sub-G1 peaks",NB4 cells,56%
same,"viability at 30 h, 5 µM",[1],85.5 ± 3.7%
same,levels of H3R17me2,CARM1,most effective
